Key:
Details in all cases: CFU after 24 h, 0.07% (w/v) polysaccharide, 30 ppm copper, Table 3(b)
C. albicans = tested on: C. albicans
A. baumannii = tested on: A. baumannii
P. aeruginosa = tested on: P. aeruginosa
E. coli = tested on: E. coli
S. aureus = tested on: S. aureus
B. subtilis = tested on: B. subtilis

| Compound | Cell Viability [%] (C. albicans) | Cell Viability [%] (A. baumannii) | Cell Viability [%] (P. aeruginosa) | Cell Viability [%] (E. coli) | Cell Viability [%] (S. aureus) | Cell Viability [%] (B. subtilis) |
| --- | --- | --- | --- | --- | --- | --- |
| [Cl][Cu][Cl] [CuCl2] | 71.0 ± 1.0 | 81.5 ± 7.4 | 82.6 ± 6.8 | 81.3 ± 5.6 | 81.6 ± 4.5 | 82.0 ± 1.0 |
| [Cl][Cu] [CuCl, cuprous chloride] | 90.3 ± 0.6 | 37.4 ± 3.5 | 38.9 ± 4.5 | – | – | 52.6 ± 5.4 |
| [O]=[Cu] [CuO] | 84.7 ± 4.0 | 87.1 ± 2.3 | 79.4 ± 8.9 | 78.1 ± 6.5 | 71.2 ± 8.9 | 72.7 ± 4.0 |
